The values that follow come from patent US20140343000A1 (priority 2011, published 2014).

As usually defined, the EC50 is the concentration at which the effect is half-maximal.

Where a name gives a salt, the structure may show the parent alone. Read-outs that look alike come from different tables or passages of the source. Where only a bound is given, the exact number is not on record here.

The assay has as its system recombinant NL4-3 virus (Renilla luciferase in nef, Gag P373S; NLRluc) in MT-2 cells. The assay can be described thus: whole plant or invertebrate. To be noted: Renilla. Type of assay: cell-based, HIV. The method in brief: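 MT-2 cells infected 4–5 days with NL4-3 carrying Renilla luciferase in nef and Gag P373S, with serial dilutions of inhibitor present. Antiviral activity quantified by luciferase activity, using Dual Luciferase reagents premixed with lysis buffer and read immediately.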

[1] abbreviates: NL43, luciferase activity in cells infected for 4-5 days with NLRluc recombinants, serial dilutions of inhibitor, class symbols (key in Table 1), read-out: EC50.
Where [2] appears, read: NL43, luciferase activity in cells infected for 4-5 days with NLRluc recombinants, serial dilutions of inhibitor, numeric values, read-out: EC50.

As to `C=C(C)[C@@H]1CC[C@]2(NC(=O)C(=O)Nc3nncs3)CC[C@]3(C)[C@H](CC[C@@H]4[C@@]5(C)CC=C(c6ccc(C(=O)O)cc6)C(C)(C)[C@@H]5CC[C@]43C)[C@@H]12` [Example 78, 4-((1R,3aS,5aR,5bR,7aR,11aS,11bR,13aR,13bR)-3a-(2-(1,3,4-thiadiazol-2-ylamino)-2-oxoacetamido)-5a,5b,8,8,11a-pentamethyl-1-(prop-1-en-2-yl)-2,3,3a,4,5,5a,5b,6,7,7a,8,11,11a,11b,12,13,13a,13b-octadecahydro-1H-cyclopenta[a]chrysen-9-yl)benzoic acid], the EC50 under setting [1] is < 100 nM.
On the same count and under the same terms, for `C=C(C)[C@@H]1CC[C@]2(NCCN3CCNCC3)CC[C@]3(C)[C@H](CC[C@@H]4[C@@]5(C)CC=C(c6ccc(C(=O)O)cc6)C(C)(C)[C@@H]5CC[C@]43C)[C@@H]12` [Example B20, 4-((1R,3aS,5aR,5bR,7aR,11aS,11bR,13aR,13bR)-5a,5b,8,8,11a-pentamethyl-3a-((2-(piperazin-1-yl)ethyl)amino)-1-(prop-1-en-2-yl)-2,3,3a,4,5,5a,5b,6,7,7a,8,11,11a,11b,12,13,13a,13b-octadecahydro-1H-cyclopenta[a]chrysen-9-yl)benzoic acid] the value was < 100 nM.
As for `C=C(C)[C@@H]1CC[C@]2(NCCN3CCS(=O)(=O)CC3)CC[C@]3(C)[C@H](CC[C@@H]4[C@@]5(C)CC=C(c6ccc(C(=O)O[C@H]7O[C@H](C(=O)O)[C@@H](O)[C@H](O)[C@H]7O)cc6)C(C)(C)[C@@H]5CC[C@]43C)[C@@H]12` [Example B7B, (2S,3S,4S,5R,6R)-6-((4-((1R,3aS,5aR,5bR,7aR,11aS,11bR,13aR,13bR)-3a-((2-(1,1-dioxidothiomorpholino)ethyl)amino)-5a,5b,8,8,11a-pentamethyl-1-(prop-1-en-2-yl)-2,3,3a,4,5,5a,5b,6,7,7a,8,11,11a,11b,12,13,13a,13b-octadecahydro-1H-cyclopenta[a]chrysen-9-yl)benzoyl)oxy)-3,4,5-trihydroxytetrahydro-2H-pyran-2-carboxylic acid], for the setting “NL43”, the EC50 was < 100 nM.
For the compound `C=C(C)[C@@H]1CC[C@]2(NCCNC(=O)OC(C)(C)C)CC[C@]3(C)[C@H](CC[C@@H]4[C@@]5(C)CC=C(c6ccc(C(=O)O)cc6)C(C)(C)[C@@H]5CC[C@]43C)[C@@H]12` [Example 138, 4-((1R,3aS,5aR,5bR,7aR,11aS,11bR,13aR,13bR)-3a-(2-(tert-butoxycarbonylamino)ethylamino)-5a,5b,8,8,11a-pentamethyl-1-(prop-1-en-2-yl)-2,3,3a,4,5,5a,5b,6,7,7a,8,11,11a,11b,12,13,13a,13b-octadecahydro-1H-cyclopenta[a]chrysen-9-yl)benzoic acid], the EC50 under setting [1] is < 100 nM.
With `C=C(C)[C@@H]1CC[C@]2(NCc3ccnc(F)c3)CC[C@]3(C)[C@H](CC[C@@H]4[C@@]5(C)CC=C(c6ccc(C(=O)O)cc6)C(C)(C)[C@@H]5CC[C@]43C)[C@@H]12` [Example 132, 4-((1R,3aS,5aR,5bR,7aR,11aS,11bR,13aR,13bR)-3a-((2-fluoropyridin-4-yl)methylamino)-5a,5b,8,8,11a-pentamethyl-1-(prop-1-en-2-yl)-2,3,3a,4,5,5a,5b,6,7,7a,8,11,11a,11b,12,13,13a,13b-octadecahydro-1H-cyclopenta[a]chrysen-9-yl)benzoic acid], the EC50 under setting [1] is < 100 nM.
Still for that read-out and setting: for `C=C(C)[C@@H]1CC[C@]2(N)CC[C@]3(C)[C@H](CC[C@@H]4[C@@]5(C)CC=C(c6ccc(C(=O)O)s6)C(C)(C)[C@@H]5CC[C@]43C)[C@@H]12` [Example B1, 5-((1R,3aS,5aR,5bR,7aR,11aS,11bR,13aR,13bR)-3a-amino-5a,5b,8,8,11a-pentamethyl-1-(prop-1-en-2-yl)-2,3,3a,4,5,5a,5b,6,7,7a,8,11,11a,11b,12,13,13a,13b-octadecahydro-1H-cyclopenta[a]chrysen-9-yl)thiophene-2-carboxylic acid] the value was < 100 nM.
The same measure, in the same setting: for `C=C(C)[C@@H]1CC[C@]2(NCCN3CCC(F)(F)CC3)CC[C@]3(C)[C@H](CC[C@@H]4[C@@]5(C)CC=C(c6ccc(C(=O)O)cc6)C(C)(C)[C@@H]5CC[C@]43C)[C@@H]12` [Example 172] the value was < 100 nM.
With `CC(C)NC(=O)CN[C@]12CC[C@@H](C(C)C)[C@@H]1[C@H]1CC[C@@H]3[C@@]4(C)CC[C@H](c5ccc(C(=O)O)cc5)C(C)(C)[C@@H]4CC[C@@]3(C)[C@]1(C)CC2` [Example B9], under setting [2], the half-maximal effective concentration (EC50) is 10 nM.
Take `C=C(C)[C@@H]1CC[C@]2(NC(=O)N(CCO)CCN(C)C)CC[C@]3(C)[C@H](CC[C@@H]4[C@@]5(C)CC=C(c6ccc(C(=O)O)cc6)C(C)(C)[C@@H]5CC[C@]43C)[C@@H]12` [Example 52, 4-((1R,3aS,5aR,5bR,7aR,11aS,11bR,13aR,13bR)-3a-(3-(2-(dimethylamino)ethyl)-3-(2-hydroxyethyl)ureido)-5a,5b,8,8,11a-pentamethyl-1-(prop-1-en-2-yl)-2,3,3a,4,5,5a,5b,6,7,7a,8,11,11a,11b,12,13,13a,13b-octadecahydro-1H-cyclopenta[a]chrysen-9-yl)benzoic acid]: under setting [1], the EC50 was < 100 nM.
Still for that read-out and setting: for `C=C(C)[C@@H]1CC[C@]2(Nc3nc(-c4ccccn4)cs3)CC[C@]3(C)[C@H](CC[C@@H]4[C@@]5(C)CC=C(c6ccc(C(=O)O)cc6)C(C)(C)[C@@H]5CC[C@]43C)[C@@H]12` [Example 187, 4-((1R,3aS,5aR,5bR,7aR,11aS,11bR,13aR,13bR)-5a,5b,8,8,11a-pentamethyl-1-(prop-1-en-2-yl)-3a-(4-(pyridin-2-yl)thiazol-2-ylamino)-2,3,3a,4,5,5a,5b,6,7,7a,8,11,11a,11b,12,13,13a,13b-octadecahydro-1H-cyclopenta[a]chrysen-9-yl)benzoic acid, TFA] the value was < 100 nM; for `C=C(C)[C@@H]1CC[C@]2(NC(=O)C(C)N3CCS(=O)(=O)CC3)CC[C@]3(C)[C@H](CC[C@@H]4[C@@]5(C)CC=C(c6ccc(C(=O)O)cc6)C(C)(C)[C@@H]5CC[C@]43C)[C@@H]12` (stereo partly drawn) [Example 93, benzoic acid, 4-[(1R,3aS,5aR,5bR,7aR,11aS,11bR,13aR,13bR)-3a-[[2-(1,1-dioxido-4-thiomorpholinyl)-1-oxopropyl]amino]-2,3,3a,4,5,5a,5b,6,7,7a,8,11,11a,11b,12,13,13a,13b-octadecahydro-5a,5b,8,8,11a-pentamethyl-1-(1-methylethenyl)-1H-cyclopenta[a]chrysen-9-yl]], < 100 nM.
The same measure, in the same setting: the figure for `C=C(C)[C@@H]1CC[C@]2(NC(=O)NCCN(C)S(C)(=O)=O)CC[C@]3(C)[C@H](CC[C@@H]4[C@@]5(C)CC=C(c6ccc(C(=O)O)cc6)C(C)(C)[C@@H]5CC[C@]43C)[C@@H]12` [Example 50, 4-((1R,3aS,5aR,5bR,7aR,11aS,11bR,13aR,13bR)-5a,5b,8,8,11a-pentamethyl-3a-(3-(2-(N-methylmethylsulfonamido)ethyl)ureido)-1-(prop-1-en-2-yl)-2,3,3a,4,5,5a,5b,6,7,7a,8,11,11a,11b,12,13,13a,13b-octadecahydro-1H-cyclopenta[a]chrysen-9-yl)benzoic acid] is < 100 nM; for `C=C(C)[C@@H]1CC[C@]2(NC(=O)N(C)CCCN(C)C)CC[C@]3(C)[C@H](CC[C@@H]4[C@@]5(C)CC=C(c6ccc(C(=O)O)cc6)C(C)(C)[C@@H]5CC[C@]43C)[C@@H]12` [Example 46, 4-((1R,3aS,5aR,5bR,7aR,11aS,11bR,13aR,13bR)-3a-(3-(3-(dimethylamino)propyl)-3-methylureido)-5a,5b,8,8,11a-pentamethyl-1-(prop-1-en-2-yl)-2,3,3a,4,5,5a,5b,6,7,7a,8,11,11a,11b,12,13,13a,13b-octadecahydro-1H-cyclopenta[a]chrysen-9-yl)benzoic acid] it is < 100 nM; for `C=C(C)[C@@H]1CC[C@]2(NC(=O)Cn3ccnn3)CC[C@]3(C)[C@H](CC[C@@H]4[C@@]5(C)CC=C(c6ccc(C(=O)O)cc6)C(C)(C)[C@@H]5CC[C@]43C)[C@@H]12` [Example 88, 4-((1R,3aS,5aR,5bR,7aR,11aS,11bR,13aR,13bR)-3a-(2-(1H-1,2,3-triazol-1-yl)acetamido)-5a,5b,8,8,11a-pentamethyl-1-(prop-1-en-2-yl)-2,3,3a,4,5,5a,5b,6,7,7a,8,11,11a,11b,12,13,13a,13b-octadecahydro-1H-cyclopenta[a]chrysen-9-yl)benzoic acid] it is < 100 nM.
The same measure, in the same setting: the figure for `C=C(C)[C@@H]1CC[C@]2(NCCN)CC[C@]3(C)[C@H](CC[C@@H]4[C@@]5(C)CC=C(c6ccc(C(=O)O)cc6)C(C)(C)[C@@H]5CC[C@]43C)[C@@H]12` [Example 139, 4-((1R,3aS,5aR,5bR,7aR,11aS,11bR,13aR,13bR)-3a-(2-aminoethylamino)-5a,5b,8,8,11a-pentamethyl-1-(prop-1-en-2-yl)-2,3,3a,4,5,5a,5b,6,7,7a,8,11,11a,11b,12,13,13a,13b-octadecahydro-1H-cyclopenta[a]chrysen-9-yl)benzoic acid] is < 100 nM; for `CC(C)[C@@H]1CC[C@]2(NCCN3CCOCC3)CC[C@]3(C)[C@H](CC[C@@H]4[C@@]5(C)CC[C@H](c6ccc(C(=O)O)cc6)C(C)(C)[C@@H]5CC[C@]43C)[C@@H]12` [Example B4] it is < 100 nM.
Regarding `C=C(C)[C@@H]1CC[C@]2(NCCNCCC(=O)O)CC[C@]3(C)[C@H](CC[C@@H]4[C@@]5(C)CC=C(c6ccc(C(=O)O)cc6)C(C)(C)[C@@H]5CC[C@]43C)[C@@H]12` [Example 140, 4-((1R,3aS,5aR,5bR,7aR,11aS,11bR,13aR,13bR)-3a-(2-(2-carboxyethylamino)ethylamino)-5a,5b,8,8,11a-pentamethyl-1-(prop-1-en-2-yl)-2,3,3a,4,5,5a,5b,6,7,7a,8,11,11a,11b,12,13,13a,13b-octadecahydro-1H-cyclopenta[a]chrysen-9-yl)benzoic acid], under setting [2], the EC50 came out at 9 nM.
